{"source": "patent US12258425B2", "about": "“Peptide compositions and methods of use” (priority 2015, dated 2025)", "key": {"[1]": {"system": "FasL-induced caspase 8 activation in 661W cells", "experiment": "Blockade of FasL-induced caspase 8 activation in 661W cells", "type": "cell-based", "settings": "for Concentration of maximal inhibition of FasL-induced caspase 8 activation / EC50: FasL 500 ng/mL, 48 hours; for EC50: trihydrochloride, unbuffered solution in DMSO, read-out: EC50, inhibition of FasL-induced caspase 8 activation", "from_the_text": "Cell Culture. The 661W photoreceptor cell line was generously provided by Muayyad Al-Ubaidi (Department of Cell Biology, University of Oklahoma Health Sciences Center, Oklahoma City, OK). The 661W cell line is a photoreceptor line that has been immortalized by the expression of SV40-T antigen under control of the human interphotoreceptor retinol-binding protein (IRBP) promoter (Al-Ubaidi et al.,J Cell Biol., 119(6):1681-1687 (1992), herein incorporated by reference in its entirety). 661W cells express cone photoreceptor markers, including blue and green cone pigments, transducin, and cone arrestin (Tan et al., Invest Ophtholmol Vis Sci., (3):764-768 (2004), herein incorporated by reference in its entirety), and can undergo caspase-mediated cell death (Kanan et al., Invest Ophthalmol Vis Sci., 48(1):40-51 (2007), herein incorporated by reference in its entirety).\nThe 661W cell line was maintained in Dulbecco's modified Eagle's medium containing 10% fetal bovine serum, 300 mg/L glutamine, 32 mg/L putrescine, 40 μL/L β-mercaptoethanol, 40 μg/L hydrocortisone 21-hemisuccinate, and 40 μg/L progesterone. The media also contained penicillin (90 U/mL) and streptomycin (0.09 mg/mL). Cells were grown at 37° C. in a humidified atmosphere of 5% CO2 and 95% air.\nActivity Assays. Caspase 3, caspase 8 and caspase 9 activities were measured with colorimetric tetrapeptide cleavage assay kits, per the manufacturer's instructions (BioVision, Mountain View, Calif). Total (661W/retinal) protein was extracted as per a previously published protocol (Zacks et al., IOVS, 44(3):1262-1267 (2003), herein incorporated by reference in its entirety). One hundred micrograms of total (661W/retinal) protein was incubated with caspase 3 (DEVD-pNA), caspase 8 (IETD-pNA) or caspase 9 substrates (LEHD-pNA) at 200 μM final concentration for 60 minutes. Absorbance was measured at 405 nm in a microplate reader (Spectra-MAX 190, Molecular Devices, Sunnyvale, Calif). As a negative control, (661W/retinal) protein was incubated with assay buffer without the tetrapeptide. A second negative control was used in which assay buffer alone was incubated with the tetrapeptide. As a positive control, purified caspase 3, caspase 8, or caspase 9 was incubated with the tetrapeptide alone.\n661W cells were treated with a FasL. […] Activity of caspase 8 measured in 661W cell lysates increased with increasing concentration of FasL, peaking with the 500 ng/ml dose. 661W cells were treated with 500 ng/ml FasL and measured activity levels at various time points.\nThe assay system described above was used as an in vitro screening system to find potential inhibitors of the Fas-induced Caspase 8 activation pathway. […] This activity is very dependent on the formulation in which the Met-12 peptide is delivered. The final formulation for Met-12 was diluted 1000-fold for this assay, and to get to the top of the dose curve, which is normally 100 μM, one uses lesser dilutions."}, "[2]": {"system": "photoreceptor cells in the detached portion of the retina", "experiment": "Rat retinal detachment model, TUNEL count of apoptotic cells", "type": "in vivo, rats", "settings": "for Cells positive for TUNEL in detached retina: Example 10, subretinal, three days", "procedure": "Briefly, rodents were anesthetized with a 50:50 mix of ketamine (100 mg/mL) and xylazine (20 mg/mL), and pupils were dilated with topical phenylephrine (2.5%) and tropicamide (1%). A 20-gauge microvitreoretinal blade (Walcott Scientific, Marmora, NJ) was used to create a sclerotomy 2 mm posterior to the limbus, carefully avoiding lens damage.\nUnder direct visualization through an operating microscope, a subretinal injector (Glaser, 32-gauge tip; BD Ophthalmic Systems, Sarasota, FL) was introduced through the sclerotomy into the vitreous cavity and then through a peripheral retinotomy into the subretinal space. Sodium hyaluronate (10 mg/mL) was slowly injected to detach the neurosensory retina from the underlying retinal pigment epithelium.\nIn all experiments, approximately one-third to one-half of the superonasal neurosensory retina was detached. In all animals, detachments were created in the same location to allow for direct comparison of retinal cell counts. Detachments were created in the left eye, leaving the right eye as the control. […]\nAfter three days rats were euthanized, retinas were excised, fixed, sectioned, and stained for TUNEL assays. Areas of detached retina were counted for number of apoptotic cells. Each experiment involved 4 fields from each of 4 sections obtained from 5 or 6 retinas for each dosing group."}, "[3]": {"experiment": "pH-solubility titration (visual: precipitate, turbidity, viscosity, gel)", "type": "physicochemical", "procedure": "Compound 1 obtained as a trihydrochloride salt, as described in Example 1, and was screened for aqueous solubility at different pHs, by carrying out pH titrations according to the following protocol. In some cases Met-12 was run through an identical experimental procedure to determine its solubility pH profile under the same conditions.\nCompound 1 (10 mg) was dissolved in water (270-900 ? L) in a 2 mL clear plastic centrifuge tube with vortexing to give a pH ˜2.4 solution. […] This solution was then diluted with the appropriate amount of cosolvent or other excipient (sugar, surfactant etc.) to produce a clear acidic solution of 10 mg of Compound 1 in […] of the test solution at room temperature ([…]). Small aliquots of a basic solution (usually sodium hydroxide 1.0 M or 0.1 M, but sometimes other bases when investigating buffers) were added using a microliter syringe. Between additions the solution was mixed by vortexing, and the solution was inspected visually for precipitates of various types, turbidity, as a likely sign of microprecipitates, and viscosity to detect gel formation. pH measurements were taken at all these observation points. Some experiments titrated from the endogenous low pH to pH 10, but later titrations were not carried much above pH 7, or sometimes even lower."}, "[4]": {"settings": "5 μg in 5 μL DMSO, trihydrochloride"}}, "note": "Structures can show the parent of a compound that is named as a salt. Where a SMILES comes first, the peptide text is derived from it.", "data": [{"smiles": "CC[C@H](C)[C@H](NC(=O)[C@H](Cc1ccc(O)cc1)NC(=O)[C@H](CC(N)=O)NC(=O)[C@@H](NC(=O)[C@H](C)NC(=O)CNC(=O)[C@H](CC(C)C)NC(=O)[C@H](Cc1ccc(O)cc1)NC(=O)[C@@H](NC(=O)[C@H](Cc1cnc[nH]1)NC(=O)[C@@H](N)Cc1cnc[nH]1)[C@@H](C)CC)C(C)C)C(=O)N[C@@H](Cc1ccc(O)cc1)C(N)=O", "note": "[Compound 1 trihydrochloride, His-His-Ile-Tyr-Leu-Gly-Ala-Val-Asn-Tyr-Ile-Tyr-NHz] (H-HHIYLGAVNYIY-NH2)", "values": [{"measurement": "Most potent concentration (FIG. 3)", "setting": "[1]; 10 mg/mL in 1% PS-20, 3% PG, pH 4", "value": 3, "unit": "µM"}, {"measurement": "Dose potency and efficacy versus Met-12 or Compound 1 in DMSO (FIG. 2)", "setting": "[1]; 10 mg/mL in 2% Polysorbate 20 and 2% PG at pH 4", "value": "both considerably more dose potent, but also more efficacious"}, {"measurement": "Course of activity with concentration (FIG. 3)", "setting": "[1]; 10 mg/mL in 3% PS-20, 3% PG, pH 4, top dose 30", "value": "continued increase in activity"}, {"measurement": "Potency relative to Met-12 by 1C50", "setting": "[1]; 661W cells, both in DMSO", "value": 10, "unit": "fold"}, {"measurement": "Potency relative to Met-12 by concentration of maximal inhibition", "setting": "[1]; 661W cells, both in DMSO", "value": "approximately 3 fold"}, {"measurement": "Dose potency versus Met-12 (FIG. 2)", "setting": "[1]; DMSO (20 mg/mL)", "value": "somewhat more dose potent than Met-12"}, {"measurement": "Activity above 30 μM", "setting": "[1]; trihydrochloride in DMSO, U-shaped curve", "value": "almost inactive"}, {"measurement": "Concentration of maximal inhibition of FasL-induced caspase 8 activation", "setting": "[1]; trihydrochloride in DMSO", "value": 3, "unit": "µM"}, {"measurement": "EC50", "setting": "[1]", "value": 400, "unit": "nM"}, {"measurement": "Cells positive for TUNEL in detached retina", "setting": "[2]; 0.5 μg in DMSO", "value": 0.58, "unit": "%"}, {"measurement": "Cells positive for TUNEL in detached retina", "setting": "[2]; 1 μg in DMSO", "value": 1.14, "unit": "%"}, {"measurement": "Cells positive for TUNEL in detached retina", "setting": "[2]; [4]", "value": 0.82, "unit": "%"}, {"measurement": "Cells positive for TUNEL in detached retina", "setting": "[2]; 10 μg in DMSO", "value": 0.9, "unit": "%"}, {"measurement": "Apoptotic cells in detached retina", "setting": "[2]; Example 11, 1 μg in 2% propylene glycol, 2% poloxamer 407, pH 4", "value": 0.4, "unit": "%"}, {"measurement": "Apoptotic cells in detached retina", "setting": "[2]; Example 11, 1 μg in 3% propylene glycol, 3% PS-20, pH 4.0", "value": 0.01, "unit": "%"}, {"measurement": "Apoptotic cells in detached retina", "setting": "[2]; Example 11, 5 μg in 2% propylene glycol, 2% poloxamer 407, pH 4", "value": 0.3, "unit": "%"}, {"measurement": "Apoptotic cells in detached retina", "setting": "[2]; Example 11, 5 μg in 3% propylene glycol, 3% PS-20, pH 4.0", "value": 2.9, "unit": "%"}, {"measurement": "Apoptotic cells in detached retina", "setting": "[2]; Example 11, 5 μg in DMSO", "value": 2.5, "unit": "%"}, {"measurement": "Apoptotic cells in detached retina", "setting": "[2]; Example 12, 1 μg in DMSO", "value": 2.4, "unit": "%"}]}, {"smiles": "CC[C@H](C)[C@H](NC(=O)[C@H](Cc1ccc(O)cc1)NC(=O)[C@H](CC(N)=O)NC(=O)[C@@H](NC(=O)[C@H](C)NC(=O)CNC(=O)[C@H](CC(C)C)NC(=O)[C@H](Cc1ccc(O)cc1)NC(=O)[C@@H](NC(=O)[C@H](Cc1cnc[nH]1)NC(=O)[C@@H](N)Cc1cnc[nH]1)[C@@H](C)CC)C(C)C)C(=O)N[C@@H](Cc1ccc(O)cc1)C(N)=O", "note": "[Compound 1 triacetate, His-His-Ile-Tyr-Leu-Gly-Ala-Val-Asn-Tyr-Ile-Tyr-NHz] (H-HHIYLGAVNYIY-NH2)", "values": [{"measurement": "Inherent pH of the salt", "setting": "[3]; 2 mg/mL in water", "value": "3.4-3.6 pH"}, {"measurement": "Apoptotic cells in detached retina", "setting": "[2]; Example 12, 1 μg in DMSO", "value": 1.2, "unit": "%"}]}, {"smiles": "CC[C@H](C)[C@H](NC(=O)[C@H](Cc1ccc(O)cc1)NC(=O)[C@H](CC(N)=O)NC(=O)[C@@H](NC(=O)[C@H](C)NC(=O)CNC(=O)[C@H](CC(C)C)NC(=O)[C@H](Cc1ccc(O)cc1)NC(=O)[C@@H](NC(=O)[C@H](Cc1c[nH]cn1)NC(=O)[C@@H](N)Cc1c[nH]cn1)[C@@H](C)CC)C(C)C)C(=O)N[C@@H](Cc1ccc(O)cc1)C(=O)O", "note": "[Met-12, HHIYLGAVNYIY, reference compound] (H-HHIYLGAVNYIY-OH; N-terminus assumed)", "values": [{"measurement": "Aqueous solubility (in words)", "setting": "[3]", "value": "extremely poor aqueous solubility"}, {"measurement": "pH of onset of gelling", "setting": "[3]; 70% Propylene glycol", "value": 3.2, "unit": "pH"}, {"measurement": "pH to which a clear mobile solution persists", "setting": "[3]; aqueous solution titrated with sodium hydroxide", "value": 3.0, "unit": "pH"}, {"measurement": "Loss in activity of a non-solution formulation", "setting": "[1]; 10 mg/mL in 20 mM citrate buffer pH 2.8, in vitro and in vivo assays", "value": "at least a fivefold loss in activity"}, {"measurement": "Caspase 8 activation remaining relative to baseline", "setting": "[1]; Met-12 trihydrochloride at 10 μM, depending on the assay", "value": "0-25%"}, {"measurement": "Dose at which maximum inhibition is achieved", "setting": "[1]; aqueous based formulations", "value": "50 to 100", "unit": "µM"}, {"measurement": "Concentration of maximal inhibition of FasL-induced caspase 8 activation", "setting": "[1]; trihydrochloride in DMSO", "value": 10, "unit": "µM"}, {"measurement": "EC50", "setting": "[1]", "value": 4000, "unit": "nM"}, {"measurement": "Cells positive for TUNEL in detached retina", "setting": "[2]; [4]", "value": "over 1%"}]}]}
